Test results reported in patent publication US11617777B2, “Cytotoxic and anti-mitotic compounds, and methods of using the same” (ZYMEWORKS BC INC., priority 2013, dated 2023).

Experiments:
HCC1954 cells [1] = assay: Cytotoxicity of compounds, CellTiter-Glo; format: cell-based; conditions: Homo sapiens
From the text: (§1) Cell lines used: Human T-cell leukemia cell line Jurkat (ATCC: TIB-152); HCC1954 (ATCC: CRL. 2338); Human Pancreatic cells lines: AsPC-1 (ATCC: CRL-1682), BxPC-3 (ATCC: CRL.1687), HPAF-II (ATCC: CRL.1997), MiaPaCa2 (ATCC: CRL.1420), PANC-1 (ATCC: CRL.1469), Capan-1 (ATCC: HTB-79), Capan-2 (ATCC: HTB-80) and the Human gastric carcinoma cell line NCI-N87 (ATCC: CRL. 5822); AML-193 (ATCC: CRL.9589), CCRF-CEM (ATCC: CCL-119), DU145 (ATCC: HTB-81), PC-3 (ATCC: CRL.1435), A-431 (ATCC: CRL.1555), HT-29 (ATCC: HTB-38), A-172 (ATCC: CRL.1620), NCI-H358 (ATCC: CRL.5807), A549 (ATCC: CCL-185), Colo-205 (ATCC: CCL-222), MDA-MB-231 (ATCC: HTB-26), OVCAR-3 (ATCC: HTB-161), OV-90 (ATCC: CRL.11732), OE19 (Sigma: 96071721), RT 112/84 (Sigma: 85061106).
(§2) On the day prior to adding compounds, HCC1954 AsPC-1, BxPC-3, HPAF-II, MiaPaCa2, PANC-1, Capan-1, Capan-2 and NCI-N87 cells were added to opaque-walled 96-well tissue culture-treated microtiter plates using complete growth medium at a density of 2500 cells/100 microlitre (uL) of medium. These adherant cell lines cells were incubated for one night at 37° C./5% CO2 to allow the cells to attach to the microtiter plate surface. On the day that compounds were added, Jurkat cells are added to separate 96-well microtiter plates at 2500 cells/100 uL using the same growth medium as HCC1954. Compound were first serially diluted using dimethyl sulfoxide, and then the prepared dilutions are added to complete growth medium at five-times the final concentration—compounds were then titrated 1:3, eight steps. A control with no compound (growth medium alone) was included on each microtiter plate in sextuplicate. The prepared compounds titrations were added (twenty-five uL/well) in triplicate. The cells and compound titrations were incubated at 37° C./5% CO2 for three nights. After the incubation, cell viability is measured using CellTiter-Glo® reagent by adding thirty uL of prepared CellTiter-Glo® to each assay well. The assay is incubated for at least twenty minutes in the dark prior to measuring emitted luminescence using a microplate luminometer (500 ms integration time). The collected relative luminescence units (RLU) are converted to % cytotoxicity using the Growth medium alone control mentioned above (% Cytotoxicity=1−[Well RLU/average medium alone control RLU]).
(§3) GraphPad Prism was used for generation of EC50 values using three parameter non-linear regression curve fitting.

Jurkat cells [2] = assay: Cytotoxicity of compounds, CellTiter-Glo; format: cell-based, Human; conditions: Homo sapiens, Jurkat
Procedure, shortened: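 HCC1954 plated at 2500 cells/100 uL and attached overnight; Jurkat plated at 2500 cells/100 uL on the day of dosing. Cells exposed to 8-step 1:3 compound titrations for three nights at 37° C./5% CO2, in triplicate. CellTiter-Glo luminescence converted to % cytotoxicity versus medium-only control; EC50 by three-parameter nonlinear regression.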

HCC1954 cells [3] = assay: Cytotoxicity assay of SMCC- and LC-SPDP-linked ADCs and free compounds; format: cell-based; conditions: Homo sapiens
Description: (§4) The purified ADCs were then analysed for: total protein content (BCA assay, Pierce microBCA protocol), relative affinity for antigen binding (equilibrium native binding), and selective cytotoxic killing of HER2-positive cells (HCC1954) compared HER2-negative cells (Jurkat).
(§5) On the day prior to adding test articles, HCC1954 cells were added to opaque-walled 96-well tissue culture-treated microtiter plates using complete growth medium at a density of 2500 cells/100 microlitre (uL) of medium. The HCC1954 cells were incubated for one night at 37° C./5% CO2 to allow the cells to attach to the microtiter plate surface. On the day that test articles were added, Jurkat cells are added to separate 96-well microtiter plates at 2500 cells/100 uL using the same growth medium as HCC1954. To compare the ADC killing to that obtained from the free-compounds, the n-acyl sulfonamide compounds were first serially diluted using dimethyl sulfoxide or DMA, and then the prepared dilutions are added to complete growth medium at five-times the final concentration—compounds were then titrated 1:3, eight steps. To test the ADCs, they were diluted directly in growth medium at five-times the final concentration—ADCs were then titrated 1:3, eight steps. A control with no test article present (growth medium alone) was included on each microtiter plate in sextuplicate. The prepared compound/ADC titrations were added (twenty-five uL/well) in triplicate to both the HCC1954 cells and Jurkat cells. The cells and titrations were incubated at 37° C./5% CO2 for three nights. After the incubation, cell viability was measured using CellTiter-Glo® reagent by adding thirty uL of prepared CellTiter-Glo® to each assay well. The assay was incubated for at least twenty minutes in the dark prior to measuring emitted luminescence using a microplate luminometer (500 ms integration time). The collected relative luminescence units (RLU) were converted to % cytotoxicity using the Growth medium alone control mentioned above (% Cytotoxicity=1−[Well RLU/average medium alone control RLU]).

Jurkat cells [4] = assay: as above; format: cell-based; conditions: Homo sapiens
Description: as §4, §5

AsPC-1 = assay: Cytotoxicity of compounds, CellTiter-Glo; format: cell-based; conditions: Homo sapiens, ASPC1, Table 5, read-out: Cytotoxicity (EC50) AsPC-1
From the text: (§6) FIG. 1 summarizes the data for compounds A, B, C, D, and E when tested using the Human mammary carcinoma cell line HCC1954 or Human T-cell leukemia cell line Jurkat. FIGS. 2-6 show the cytotoxicity data plots for individual compounds A-E. Tables 2-6 summarize the results of additional cytotoxicity assays.
as §1, §2, §3

BxPC-3 = assay: Cytotoxicity of compounds, CellTiter-Glo; format: cell-based; conditions: Homo sapiens, Table 5, read-out: Cytotoxicity (EC50) BxPC-3
From the text: as §6, §1, §2, §3

HPAF-II = assay: Cytotoxicity of compounds, CellTiter-Glo; format: cell-based; conditions: Homo sapiens, Table 5, read-out: Cytotoxicity (EC50) HPAF-II
From the text: as §6, §1, §2, §3

MiaPaCa2 = assay: Cytotoxicity of compounds, CellTiter-Glo; format: cell-based; conditions: Homo sapiens, MIA PaCa-2; Table 5; MinPaCa2; read-out: Cytotoxicity (EC50) MinPaCa2
From the text: as §6, §1, §2, §3

NCI-N87 = assay: Cytotoxicity of compounds, CellTiter-Glo; format: cell-based; conditions: Homo sapiens, Table 5, read-out: Cytotoxicity (EC50) NCI-N87
From the text: as §6, §1, §2, §3

PANC-1 = assay: Cytotoxicity of compounds, CellTiter-Glo; format: cell-based; conditions: Homo sapiens, Table 5, read-out: Cytotoxicity (EC50) PANC-1
From the text: as §6, §1, §2, §3

[5] = HCC1954, Table 4, Cytotoxicity of Compounds on HCC-1954 Cells, read-out: EC50
[6] = Table 2, HCC1954, read-out: HCC1954 EC50
[7] = Table 1, Jurkat cells (HER2−), three nights, read-out: Jurkat cells (HER2−) EC50
[8] = Table 3, Cytotoxicity of Compounds on Jurkat Cells, read-out: EC50
[9] = HCC1954, Table 9, Coupling #1, read-out: HCC1954 Best-fit EC50
[10] = Table 9, Coupling #1, read-out: Jurkat Best-fit EC50
[11] = Table 10, Coupling #2, read-out: Jurkat Best-fit EC50
[12] = Table 1, HCC1954 cells (HER2+), three nights, read-out: HCC1954 cells (HER2+) EC50
[13] = HCC1954, Table 10, Coupling #2, read-out: HCC1954 Best-fit EC50

Row | Compound | EC50 (HCC1954 cells [1]; [5]) [nM] | EC50 (HCC1954 cells [1]; [6]) [nM] | EC50 (Jurkat cells [2]; [7]) [nM] | EC50 (Jurkat cells [2]; Table 2, read-out: Jurkat EC50) [nM] | EC50 (Jurkat cells [2]; [8]) [nM] | EC50 (HCC1954 cells [3]; [9]) [nM] | EC50 (Jurkat cells [4]; [10]) [nM] | EC50 (Jurkat cells [4]; [11]) [nM] | EC50 (AsPC-1) [nM] | EC50 (BxPC-3) [nM] | EC50 (HPAF-II) [nM] | EC50 (MiaPaCa2) [nM] | EC50 (NCI-N87) [nM] | EC50 (PANC-1) [nM] | EC50 (HCC1954 cells [1]; [12]) [nM] | EC50 (HCC1954 cells [3]; [13]) [nM]
1 | CN[C@H](C(=O)N[C@H](C(=O)N(C)[C@H](/C=C(\C)C(=O)NS(=O)(=O)CCCS)C(C)C)C(C)(C)C)C(C)(C)c1ccccc1 [Compound A, (S,E)-N-(3-mercaptopropylsulfonyl)-2,5-dimethyl-4-((S)—N,3,3-trimethyl-2-((S)-3-methyl-2-(methylamino)-3-phenylbutanamido)butanamido)hex-2-enamide] | 2.1 | 3 | 0.78 | 5 | 4.5 | 2.1 | 1.1 | 0.78 |  |  |  |  |  |  |  | 
2 | CN[C@H](C(=O)N[C@H](C(=O)N(C)[C@H](/C=C(\C)C(=O)NS(=O)(=O)c1ccc(C)cc1)C(C)C)C(C)(C)C)C(C)(C)c1ccccc1 [Compound D, (S,E)-2,5-dimethyl-N-tosyl-4-((S)—N,3,3-trimethyl-2-((S)-3-methyl-2-(methylamino)-3-phenylbutanamido)butanamido)hex-2-enamide] | 0.06 | 0.06 | 0.043 | 0.04 | 0.033 |  |  |  | 0.17 | 0.0664 | 0.177 | 0.136 | 0.272 | 0.806 |  | 
3 | CN[C@H](C(=O)N[C@H](C(=O)N(C)[C@H](/C=C(\C)C(=O)NS(=O)(=O)c1ccc(CS)cc1)C(C)C)C(C)(C)C)C(C)(C)c1ccccc1 [Compound C, (S,E)-N-(4-(mercaptomethyl)phenylsulfonyl)-2,5-dimethyl-4-((S)—N,3,3-trimethyl-2-((S)-3-methyl-2-(methylamino)-3-phenylbutanamido)butanamido)hex-2-enamide] | 1.3 | 1.3 | 0.57 | 1.9 | 1.9 |  |  | 0.57 |  |  |  |  |  |  | 0.67 | 0.67
4 | CN[C@H](C(=O)N[C@H](C(=O)N(C)[C@H](/C=C(\C)C(=O)NS(=O)(=O)CCS)C(C)C)C(C)(C)C)C(C)(C)c1ccccc1 [Compound B, (S,E)-N-(2-mercaptoethylsulfonyl)-2,5-dimethyl-4-((S)—N,3,3-trimethyl-2-((S)-3-methyl-2-(methylamino)-3-phenylbutanamido)butanamido)hex-2-enamide] | 13 | 13 | 10.5 | 59 | 59 | 8.1 | 10 | 36 |  |  |  |  |  |  | 8.1 | 9.2
5 | CN[C@H](C(=O)N[C@H](C(=O)N(C)[C@H](/C=C(\C)C(=O)NS(=O)(=O)c1ccc(NC(=O)C(F)(F)F)cc1)C(C)C)C(C)(C)C)C(C)(C)c1ccccc1 [Compound 23, (S,E)-2,5-dimethyl-N-(4-(2,2,2-trifluoroacetamido)phenylsulfonyl)-4-((S)—N,3,3-trimethyl-2-((S)-3-methyl-2-(methylamino)-3-phenylbutanamido)butanamido)hex-2-enamide] |  |  |  |  | 0.031 |  |  |  |  |  |  |  | 0.402 |  |  | 
